# Laboratory results from patent publication US20120214862A1, “MODULATION OF FACTOR 7 EXPRESSION” (ISIS Pharmaceuticals, Inc., priority 2009, published 2012).
# In the oligonucleotide strings, read from the 5' end, every base follows the letter of its sugar. An asterisk marks phosphorothioate; unmarked linkages are phosphodiester. Other units and linkages are bracketed, terminal groups are in braces. A string of capitals states the bases alone. e = 2'-O-(2-methoxyethyl) (MOE); [5mC] = 5-methylcytosine; d = 2'-deoxy (DNA)
# System: human Factor 7 mRNA
# Test: Antisense inhibition of human Factor 7 mRNA in HepB3 cells, lipofectin, 50 nM, real-time RT-PCR
# Type: cell-based
# Conditions: Example 1; HepB3 cells, lipofectin, 50 nM, ~24 h, relative to untreated control cells
# Method: Antisense oligonucleotides targeted to a Factor 7 nucleic acid were tested for their effects on Factor 7 mRNA in vitro. Cultured HepB3 cells at a density of 4,000 cells per well were transfected using lipofectin reagent with 50 nM antisense oligonucleotide. After a treatment period of approximately 24 hours, RNA was isolated from the cells and Factor 7 mRNA levels were measured by real-time RT-PCR, as described herein. Factor 7 mRNA levels were adjusted according to total RNA content as measured by RIBOGREEN®. Results are presented as percent inhibition of Factor 7, relative to untreated control cells.
# (§1) Antisense oligonucleotides targeted to a Factor 7 nucleic acid were designed and tested for their effects on Factor 7 mRNA in vitro. Certain antisense oligonucleotides from Table 3 were also retested for their effects on Factor 7 mRNA in vitro. Cultured HepB3 cells at a density of 4,000 cells per well were transfected using lipofectin reagent with 50 nM antisense oligonucleotide. After a treatment period of approximately 24 hours, RNA was isolated from the cells and Factor 7 mRNA levels were measured by real-time RT-PCR, as described herein. Human Factor 7 primer probe set RTS 2927 was used to measure mRNA levels. Factor 7 mRNA levels were adjusted according to total RNA content as measured by RIBOGREEN®. Results are presented as percent inhibition of Factor 7, relative to untreated control.
# as §1, with “tested” for “tested for their effects on Factor 7 mRNA in vitro. Certain antisense oligonucleotides from Table 3 were also retested”
# These gapmers were designed by creating gapmers shifted slightly upstream and downstream (i.e. “microwalk”) of the original gapmers from Table 7. Gapmers were also created with various motifs, e.g. 5-10-5 MOE, 3-14-3 MOE, and 2-13-5 MOE. These gapmers were tested in vitro. Cultured HepB3 cells at a density of 4,000 cells per well were transfected using lipofectin reagent with 50 nM antisense oligonucleotide. After a treatment period of approximately 24 hours, RNA was isolated from the cells and Factor 7 mRNA levels were measured by real-time RT-PCR. Factor 7 mRNA levels were adjusted according to total RNA content, as measured by RIBOGREEN®. Results are presented as percent inhibition of Factor 7, relative to untreated control cells.
row,Substance,% Inhibition (human Factor 7 mRNA) [%]
1,407890 (antisense e[5mC]*eA*eG*eG*eG*dA*dG*d[5mC]*d[5mC]*d[5mC]*dG*dG*d[5mC]*d[5mC]*dG*e[5mC]*eA*eG*e[5mC]*eT) [compound 407890],60
2,407891 (antisense e[5mC]*eA*eT*eG*eG*dA*d[5mC]*dT*dT*dG*dA*dG*dG*d[5mC]*dA*e[5mC]*eA*e[5mC]*eT*eG) [compound 407891],66
3,407892 (antisense e[5mC]*e[5mC]*e[5mC]*e[5mC]*eA*dT*dT*d[5mC]*dT*dG*dG*d[5mC]*dA*dT*dG*eG*eA*e[5mC]*eT*eT) [compound 407892],68
4,407893 (antisense eT*e[5mC]*eG*eA*eA*dG*dG*d[5mC]*dA*dG*dG*dG*dA*dG*dG*e[5mC]*eA*eG*eA*eA) [compound 407893],33
5,407894 (antisense eG*eT*eT*e[5mC]*e[5mC]*dG*dG*d[5mC]*d[5mC]*d[5mC]*dT*d[5mC]*dG*dA*dA*eG*eG*e[5mC]*eA*eG) [compound 407894],77
6,407895 (antisense e[5mC]*eA*e[5mC]*eA*e[5mC]*dA*dG*dA*dT*d[5mC]*dA*dG*d[5mC]*dT*dG*eG*eT*e[5mC]*eA*eT) [compound 407895],72
7,407896 (antisense e[5mC]*eG*eT*eG*eT*dG*dG*dT*d[5mC]*dA*d[5mC]*dT*dG*d[5mC]*dA*eG*eT*eA*e[5mC]*eT) [compound 407896],73
8,407897 (antisense eG*e[5mC]*eT*eT*eG*dG*dT*dG*d[5mC]*d[5mC]*d[5mC]*dG*dT*dG*dT*eG*eG*eT*e[5mC]*eA) [compound 407897],77
9,407898 (antisense e[5mC]*e[5mC]*eA*eG*e[5mC]*dA*dG*dA*dG*dA*dG*dT*dA*d[5mC]*d[5mC]*e[5mC]*e[5mC]*eT*e[5mC]*eG) [compound 407898],49
10,407901 (antisense eT*eG*eG*eT*eG*dT*dT*dG*dA*dT*d[5mC]*dA*dG*dG*dG*eT*e[5mC]*e[5mC]*e[5mC]*e[5mC]) [compound 407901],89
11,407902 (antisense e[5mC]*eA*e[5mC]*e[5mC]*e[5mC]*dA*dG*dA*dT*dG*dG*dT*dG*dT*dT*eG*eA*eT*e[5mC]*eA) [compound 407902],86
12,407903 (antisense e[5mC]*e[5mC]*eG*e[5mC]*eG*dG*dA*dG*dA*d[5mC]*d[5mC]*dA*d[5mC]*d[5mC]*d[5mC]*eA*eG*eA*eT*eG) [compound 407903],98
13,407904 (antisense eG*eA*eA*eA*e[5mC]*dA*dG*dT*dG*dG*dG*d[5mC]*d[5mC]*dG*d[5mC]*eG*eG*eA*eG*eA) [compound 407904],83
14,407905 (antisense e[5mC]*e[5mC]*eA*eG*eT*dT*d[5mC]*dT*dT*dG*dA*dT*dT*dT*dT*eG*eT*e[5mC]*eG*eA) [compound 407905],40
15,407906 (antisense eA*e[5mC]*e[5mC]*eA*e[5mC]*dG*dG*dG*d[5mC]*dT*dG*dG*dT*dG*d[5mC]*eA*eG*eG*e[5mC]*eG) [compound 407906],4
16,407907 (antisense eA*eA*eT*eG*eA*dG*dA*dA*dG*d[5mC]*dG*d[5mC]*dA*d[5mC]*dG*eA*eA*eG*eG*e[5mC]) [compound 407907],35
17,407908 (antisense e[5mC]*e[5mC]*e[5mC]*e[5mC]*eA*dG*d[5mC]*d[5mC]*dG*d[5mC]*dT*dG*dA*d[5mC]*d[5mC]*eA*eA*eT*eG*eA) [compound 407908],47
18,407909 (antisense e[5mC]*e[5mC]*eA*eT*e[5mC]*d[5mC]*dG*dA*dG*dT*dA*dG*d[5mC]*d[5mC]*dG*eG*e[5mC]*eA*e[5mC]*eA) [compound 407909],77
19,407911 (antisense e[5mC]*e[5mC]*e[5mC]*e[5mC]*eT*dT*dG*d[5mC]*dA*dG*dG*dA*dG*dT*d[5mC]*e[5mC]*eT*eT*eG*e[5mC]) [compound 407911],74

row,Substance,% Inhibition (human Factor 7 mRNA) [%]
1,407912 (antisense e[5mC]*e[5mC]*e[5mC]*eG*eG*dT*dA*dG*dT*dG*dG*dG*dT*dG*dG*e[5mC]*eA*eT*eG*eT) [compound 407912],46
2,407913 (antisense eG*eA*eT*eG*e[5mC]*d[5mC]*d[5mC]*dG*dT*d[5mC]*dA*dG*dG*dT*dA*e[5mC]*e[5mC]*eA*e[5mC]*eG) [compound 407913],74
3,407914 (antisense e[5mC]*e[5mC]*eA*eG*e[5mC]*dT*dG*dA*d[5mC]*dG*dA*dT*dG*d[5mC]*d[5mC]*e[5mC]*eG*eT*e[5mC]*eA) [compound 407914],82
4,407915 (antisense eG*eT*eT*eG*e[5mC]*dG*d[5mC]*dA*dG*d[5mC]*d[5mC]*d[5mC]*dT*dG*dG*e[5mC]*e[5mC]*e[5mC]*e[5mC]*eA) [compound 407915],83
5,407916 (antisense eG*eT*eG*eG*e[5mC]*d[5mC]*d[5mC]*dA*d[5mC]*dG*dG*dT*dT*dG*d[5mC]*eG*e[5mC]*eA*eG*e[5mC]) [compound 407916],53
6,407917 (antisense eA*e[5mC]*eA*e[5mC]*e[5mC]*d[5mC]*d[5mC]*dA*dA*dA*dG*dT*dG*dG*d[5mC]*e[5mC]*e[5mC]*eA*e[5mC]*eG) [compound 407917],70
7,407918 (antisense e[5mC]*e[5mC]*eT*eG*eG*dT*dG*dT*dA*d[5mC]*dA*d[5mC]*d[5mC]*d[5mC]*d[5mC]*eA*eA*eA*eG*eT) [compound 407918],72
8,407919 (antisense eT*e[5mC]*eG*eA*eT*dG*dT*dA*d[5mC]*dT*dG*dG*dG*dA*dG*eA*e[5mC]*e[5mC]*e[5mC]*eT) [compound 407919],84
9,407920 (antisense eT*eG*eA*eG*e[5mC]*dG*d[5mC]*dA*dT*dG*dA*dG*d[5mC]*dT*dT*eT*eT*eG*e[5mC]*eA) [compound 407920],65
10,407921 (antisense e[5mC]*e[5mC]*eA*e[5mC]*eA*dG*dG*d[5mC]*d[5mC]*dA*dG*dG*dG*d[5mC]*dT*eG*e[5mC]*eT*eG*eG) [compound 407921],65
11,407922 (antisense eT*e[5mC]*eG*eA*e[5mC]*dG*d[5mC]*dA*dG*d[5mC]*d[5mC]*dT*dT*dG*dG*e[5mC]*eT*eT*eT*e[5mC]) [compound 407922],82
12,407923 (antisense e[5mC]*eA*eG*eG*eA*d[5mC]*dA*dG*dT*dT*d[5mC]*dG*dA*d[5mC]*dG*e[5mC]*eA*eG*e[5mC]*e[5mC]) [compound 407923],76
13,407924 (antisense eG*eA*eT*eT*eT*dG*dG*dT*dG*d[5mC]*d[5mC]*dA*dG*dG*dA*e[5mC]*eA*eG*eT*eT) [compound 407924],68
14,407925 (antisense eG*eA*eA*eT*eA*dT*dA*dT*dG*dG*dG*dA*dT*dT*dT*eG*eG*eT*eG*e[5mC]) [compound 407925],64
15,407926 (antisense e[5mC]*e[5mC]*eA*eG*eG*dA*d[5mC]*dA*dA*d[5mC]*d[5mC]*dT*dT*dG*dG*e[5mC]*eA*e[5mC]*eT*e[5mC]) [compound 407926],79
16,407927 (antisense eA*eG*eG*eT*eA*dA*dG*dG*dA*dG*dG*d[5mC]*dT*d[5mC]*dA*eG*e[5mC]*eT*eG*eG) [compound 407927],55
17,407928 (antisense e[5mC]*eT*eT*eG*eG*d[5mC]*dT*dG*dA*dA*dG*dG*dG*dA*dG*eG*eT*eA*eA*eG) [compound 407928],55
18,407929 (antisense eG*e[5mC]*eA*eG*eA*dG*d[5mC]*dA*dG*d[5mC]*dA*dG*d[5mC]*d[5mC]*dT*eG*eA*eG*eG*e[5mC]) [compound 407929],53
19,407930 (antisense e[5mC]*eA*eA*eT*eG*dA*dA*dG*dG*d[5mC]*dA*dG*dA*dG*d[5mC]*eA*eG*e[5mC]*eA*eG) [compound 407930],70
